In patent US10710978B2, “STK4 inhibitors for treatment of hematologic malignancies” (Dana-Farber Cancer Institute, Inc., priority 2015, dated 2020):
Where two headings read alike, the source gives them in different places.

How the values were obtained:
Assay in all cases: KiNativ assay
Assay type in all cases: binding
PKD3 = PKD3 (Homo sapiens (Human), UniProt O94806); conditions: H929 live cell
Procedure: (§1) Biochemical IC50s of the compounds of the present disclosure against various kinases were measured in a KiNativ assay. Compounds were screened in duplicate at 10 μM in H929 live cell. IC50 was measured via Mass spectroscopy (MS).

CDK7 = CDK7 (Homo sapiens (Human), UniProt P50613); conditions: H929 live cell
Procedure: as §1

FRAP = FRAP (Homo sapiens (Human), UniProt P42345); conditions: H929 live cell
Procedure: as §1

p38a = p38a (Homo sapiens (Human), UniProt Q16539); conditions: H929 live cell, range class, read-out: % inhibition
Method in brief: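 Mass spectrometry read-out of a KiNativ profile gave IC50 values; compounds were screened at 10 μM in duplicate in live H929 cells.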

PAN3 = PAN3 (Homo sapiens (Human), UniProt Q58A45); conditions: H929 live cell
PAN3, sequence (Q58A45 whole entry): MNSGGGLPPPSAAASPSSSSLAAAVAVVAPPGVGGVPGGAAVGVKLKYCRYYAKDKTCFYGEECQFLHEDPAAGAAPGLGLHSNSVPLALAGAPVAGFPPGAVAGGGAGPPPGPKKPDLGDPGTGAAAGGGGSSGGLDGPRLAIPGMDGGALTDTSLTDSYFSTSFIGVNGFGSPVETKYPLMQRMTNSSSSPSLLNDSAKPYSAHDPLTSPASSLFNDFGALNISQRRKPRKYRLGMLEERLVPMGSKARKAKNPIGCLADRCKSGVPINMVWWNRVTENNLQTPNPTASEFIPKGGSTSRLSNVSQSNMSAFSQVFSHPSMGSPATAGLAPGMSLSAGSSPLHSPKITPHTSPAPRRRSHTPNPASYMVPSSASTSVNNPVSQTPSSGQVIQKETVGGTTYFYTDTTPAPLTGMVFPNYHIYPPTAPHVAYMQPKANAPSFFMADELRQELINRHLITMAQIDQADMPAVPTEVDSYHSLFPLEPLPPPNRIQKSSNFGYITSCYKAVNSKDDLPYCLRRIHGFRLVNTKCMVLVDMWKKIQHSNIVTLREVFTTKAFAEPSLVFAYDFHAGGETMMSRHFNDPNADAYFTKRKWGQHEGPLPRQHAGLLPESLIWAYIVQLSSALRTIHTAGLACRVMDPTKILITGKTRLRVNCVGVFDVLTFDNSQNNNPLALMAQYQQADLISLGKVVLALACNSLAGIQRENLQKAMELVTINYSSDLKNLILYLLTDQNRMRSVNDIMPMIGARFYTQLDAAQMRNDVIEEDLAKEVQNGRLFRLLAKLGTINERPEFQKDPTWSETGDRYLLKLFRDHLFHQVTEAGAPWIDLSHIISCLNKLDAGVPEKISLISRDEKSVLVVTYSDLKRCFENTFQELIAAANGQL
Procedure: as §1

AurA, AurB, AurC = conditions: H929 live cell
Procedure: as §1

PKR = PKR (Homo sapiens (Human), UniProt P19525); conditions: H929 live cell
Procedure: as §1

CaMK2g = CaMK2g (Homo sapiens (Human), UniProt Q13555); conditions: H929 live cell
Procedure: as §1

MARK1, MARK2 = conditions: H929 live cell
Procedure: as §1

BRAF = BRAF (Homo sapiens (Human), UniProt P15056); conditions: H929 live cell
Procedure: as §1

MAP3K2 = MAP3K2 (Homo sapiens (Human), UniProt Q9Y2U5); conditions: H929 live cell
Procedure: as §1

MAP2K4 = MAP2K4 (Homo sapiens (Human), UniProt P45985); conditions: H929 live cell
MAP2K4, sequence (P45985 whole entry): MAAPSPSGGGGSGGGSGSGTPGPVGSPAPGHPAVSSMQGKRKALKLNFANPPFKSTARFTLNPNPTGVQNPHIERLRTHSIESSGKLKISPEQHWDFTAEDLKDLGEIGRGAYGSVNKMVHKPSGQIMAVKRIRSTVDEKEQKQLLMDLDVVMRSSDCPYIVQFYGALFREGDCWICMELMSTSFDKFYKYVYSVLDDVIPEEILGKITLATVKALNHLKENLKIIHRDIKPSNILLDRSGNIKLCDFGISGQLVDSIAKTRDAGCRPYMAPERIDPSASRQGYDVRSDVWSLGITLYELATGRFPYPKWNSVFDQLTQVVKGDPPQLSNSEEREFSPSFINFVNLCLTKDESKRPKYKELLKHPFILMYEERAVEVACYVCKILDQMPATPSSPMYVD
Procedure: as §1

eEF2K = eEF2K (Homo sapiens (Human), UniProt O00418); conditions: H929 live cell
Procedure: as §1

CaMKK2 = CaMKK2 (Homo sapiens (Human), UniProt Q96RR4); conditions: H929 live cell
Procedure: as §1

RSK2 domain2 = RSK2 domain2 (Homo sapiens (Human), UniProt P51812); conditions: H929 live cell
Procedure: as §1

ACK = ACK (Homo sapiens (Human), UniProt Q07912); conditions: H929 live cell
Procedure: as §1

PIK3CB = PIK3CB (Homo sapiens (Human), UniProt P42338); conditions: H929 live cell
Procedure: as §1

MST1, MST2 = conditions: H929 live cell
Procedure: as §1

STLK3 = STLK3 (Homo sapiens (Human), UniProt Q9UEW8); conditions: H929 live cell
Procedure: as §1

GCK = GCK (Homo sapiens (Human), UniProt Q12851); conditions: H929 live cell
Procedure: as §1

PKCi = PKCi (Homo sapiens (Human), UniProt P41743); conditions: H929 live cell
Procedure: as §1

PEK = PEK (Homo sapiens (Human), UniProt Q9NZJ5); conditions: H929 live cell
PEK, sequence (Q9NZJ5 30-1116): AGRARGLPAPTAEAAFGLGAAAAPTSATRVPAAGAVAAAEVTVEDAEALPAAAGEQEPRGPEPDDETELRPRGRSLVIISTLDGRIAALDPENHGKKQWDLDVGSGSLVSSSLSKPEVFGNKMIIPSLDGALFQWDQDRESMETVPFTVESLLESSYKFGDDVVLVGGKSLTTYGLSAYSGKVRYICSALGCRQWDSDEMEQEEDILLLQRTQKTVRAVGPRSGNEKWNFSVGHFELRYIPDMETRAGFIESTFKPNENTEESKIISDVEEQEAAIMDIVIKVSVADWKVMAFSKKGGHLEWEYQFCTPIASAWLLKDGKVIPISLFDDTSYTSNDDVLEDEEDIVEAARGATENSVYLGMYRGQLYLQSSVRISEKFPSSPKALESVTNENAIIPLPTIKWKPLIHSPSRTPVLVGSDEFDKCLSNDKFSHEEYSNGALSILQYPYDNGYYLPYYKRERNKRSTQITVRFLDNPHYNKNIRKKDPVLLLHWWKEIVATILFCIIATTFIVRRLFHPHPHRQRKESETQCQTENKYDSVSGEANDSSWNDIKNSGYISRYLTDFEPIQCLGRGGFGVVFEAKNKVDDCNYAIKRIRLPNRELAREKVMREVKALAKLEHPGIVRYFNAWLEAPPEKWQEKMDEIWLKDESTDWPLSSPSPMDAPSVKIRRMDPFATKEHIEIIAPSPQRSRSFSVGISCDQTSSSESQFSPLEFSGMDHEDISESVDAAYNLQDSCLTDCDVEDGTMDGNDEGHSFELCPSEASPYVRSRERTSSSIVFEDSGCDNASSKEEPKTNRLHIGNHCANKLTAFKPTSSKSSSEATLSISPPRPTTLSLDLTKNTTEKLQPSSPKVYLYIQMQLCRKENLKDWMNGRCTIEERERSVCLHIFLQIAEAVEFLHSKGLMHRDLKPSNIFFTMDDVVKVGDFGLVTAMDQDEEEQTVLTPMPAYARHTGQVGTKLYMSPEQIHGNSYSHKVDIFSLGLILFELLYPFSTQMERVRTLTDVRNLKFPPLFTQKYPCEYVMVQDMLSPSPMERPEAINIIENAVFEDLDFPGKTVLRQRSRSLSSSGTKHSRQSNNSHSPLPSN
Procedure: as §1

MST4 = conditions: H929 live cell
Procedure: as §1

AKT1 = AKT1 (Homo sapiens (Human), UniProt P31749); conditions: H929 live cell
Procedure: as §1

AurB = AurB (Homo sapiens (Human), UniProt Q96GD4); conditions: H929 live cell
AurB, sequence (Q96GD4 whole entry): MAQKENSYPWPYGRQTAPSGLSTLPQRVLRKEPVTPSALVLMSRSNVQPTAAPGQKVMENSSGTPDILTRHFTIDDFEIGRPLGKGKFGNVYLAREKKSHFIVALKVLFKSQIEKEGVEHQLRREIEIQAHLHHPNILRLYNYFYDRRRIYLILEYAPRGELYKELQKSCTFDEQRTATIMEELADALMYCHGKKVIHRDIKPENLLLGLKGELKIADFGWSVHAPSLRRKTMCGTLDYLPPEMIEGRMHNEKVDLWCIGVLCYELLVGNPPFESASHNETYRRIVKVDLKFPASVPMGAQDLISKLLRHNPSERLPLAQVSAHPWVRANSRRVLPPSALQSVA
Procedure: as §1

SMG1 = SMG1 (Homo sapiens (Human), UniProt Q96Q15); conditions: H929 live cell
Procedure: as §1

MLK3 = MLK3 (Homo sapiens (Human), UniProt Q16584); conditions: H929 live cell
MLK3, sequence (Q16584 whole entry): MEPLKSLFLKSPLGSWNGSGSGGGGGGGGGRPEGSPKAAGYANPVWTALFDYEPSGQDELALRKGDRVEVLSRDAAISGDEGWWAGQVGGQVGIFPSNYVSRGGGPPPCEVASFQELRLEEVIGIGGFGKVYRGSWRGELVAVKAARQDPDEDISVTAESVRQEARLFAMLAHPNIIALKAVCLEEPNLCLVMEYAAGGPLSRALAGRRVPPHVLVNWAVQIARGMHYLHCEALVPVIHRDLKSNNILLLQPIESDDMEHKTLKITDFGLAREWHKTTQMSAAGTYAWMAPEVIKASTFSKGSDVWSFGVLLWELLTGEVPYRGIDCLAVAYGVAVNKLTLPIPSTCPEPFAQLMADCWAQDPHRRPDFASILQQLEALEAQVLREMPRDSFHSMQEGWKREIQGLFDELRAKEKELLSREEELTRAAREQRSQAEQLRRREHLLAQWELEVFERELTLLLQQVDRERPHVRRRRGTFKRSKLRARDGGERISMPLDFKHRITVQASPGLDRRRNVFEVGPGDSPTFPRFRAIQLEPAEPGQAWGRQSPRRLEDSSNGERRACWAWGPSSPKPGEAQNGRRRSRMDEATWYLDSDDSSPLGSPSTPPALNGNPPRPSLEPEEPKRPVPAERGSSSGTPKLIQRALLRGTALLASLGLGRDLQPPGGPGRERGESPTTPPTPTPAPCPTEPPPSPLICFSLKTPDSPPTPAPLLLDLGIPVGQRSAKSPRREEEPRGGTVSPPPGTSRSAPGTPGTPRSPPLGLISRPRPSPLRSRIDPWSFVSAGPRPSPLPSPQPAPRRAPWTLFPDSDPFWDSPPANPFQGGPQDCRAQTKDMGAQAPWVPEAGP
Procedure: as §1

GSK3B = GSK3B (Homo sapiens (Human), UniProt P49841); conditions: H929 live cell
Procedure: as §1

Erk2 = Erk2 (Homo sapiens (Human), UniProt P28482); conditions: H929 live cell
Procedure: as §1

PRP4 = PRP4 (Homo sapiens (Human), UniProt Q13523); conditions: H929 live cell
Procedure: as §1

PIK3CG = PIK3CG (Homo sapiens (Human), UniProt P48736); conditions: H929 live cell
Procedure: as §1

MARK2, MARK3 = conditions: H929 live cell
Procedure: as §1

RSKL1 = RSKL1 (Homo sapiens (Human), UniProt Q96S38); conditions: H929 live cell
Procedure: as §1

PKCz = PKCz (Homo sapiens (Human), UniProt Q05513); conditions: H929 live cell
PKCz, sequence (Q05513 whole entry): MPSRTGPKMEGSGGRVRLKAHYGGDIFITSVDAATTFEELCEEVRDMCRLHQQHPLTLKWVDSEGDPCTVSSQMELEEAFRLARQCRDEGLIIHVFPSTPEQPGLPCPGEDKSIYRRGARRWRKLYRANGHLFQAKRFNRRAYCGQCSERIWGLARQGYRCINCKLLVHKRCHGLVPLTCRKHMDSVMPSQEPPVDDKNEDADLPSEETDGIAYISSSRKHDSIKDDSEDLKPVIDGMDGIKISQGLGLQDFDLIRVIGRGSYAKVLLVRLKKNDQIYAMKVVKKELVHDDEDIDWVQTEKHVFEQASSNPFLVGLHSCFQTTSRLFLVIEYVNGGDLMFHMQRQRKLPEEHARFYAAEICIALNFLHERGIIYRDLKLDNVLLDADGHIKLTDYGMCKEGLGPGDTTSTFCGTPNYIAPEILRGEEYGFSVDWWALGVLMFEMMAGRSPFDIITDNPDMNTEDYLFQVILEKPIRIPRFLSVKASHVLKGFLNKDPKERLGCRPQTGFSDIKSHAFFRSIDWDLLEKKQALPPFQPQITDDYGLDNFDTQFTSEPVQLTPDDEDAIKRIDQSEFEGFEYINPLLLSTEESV
Procedure: as §1

[1] = range class, read-out: % inhibition

PKD3, sequence (O94806 whole entry): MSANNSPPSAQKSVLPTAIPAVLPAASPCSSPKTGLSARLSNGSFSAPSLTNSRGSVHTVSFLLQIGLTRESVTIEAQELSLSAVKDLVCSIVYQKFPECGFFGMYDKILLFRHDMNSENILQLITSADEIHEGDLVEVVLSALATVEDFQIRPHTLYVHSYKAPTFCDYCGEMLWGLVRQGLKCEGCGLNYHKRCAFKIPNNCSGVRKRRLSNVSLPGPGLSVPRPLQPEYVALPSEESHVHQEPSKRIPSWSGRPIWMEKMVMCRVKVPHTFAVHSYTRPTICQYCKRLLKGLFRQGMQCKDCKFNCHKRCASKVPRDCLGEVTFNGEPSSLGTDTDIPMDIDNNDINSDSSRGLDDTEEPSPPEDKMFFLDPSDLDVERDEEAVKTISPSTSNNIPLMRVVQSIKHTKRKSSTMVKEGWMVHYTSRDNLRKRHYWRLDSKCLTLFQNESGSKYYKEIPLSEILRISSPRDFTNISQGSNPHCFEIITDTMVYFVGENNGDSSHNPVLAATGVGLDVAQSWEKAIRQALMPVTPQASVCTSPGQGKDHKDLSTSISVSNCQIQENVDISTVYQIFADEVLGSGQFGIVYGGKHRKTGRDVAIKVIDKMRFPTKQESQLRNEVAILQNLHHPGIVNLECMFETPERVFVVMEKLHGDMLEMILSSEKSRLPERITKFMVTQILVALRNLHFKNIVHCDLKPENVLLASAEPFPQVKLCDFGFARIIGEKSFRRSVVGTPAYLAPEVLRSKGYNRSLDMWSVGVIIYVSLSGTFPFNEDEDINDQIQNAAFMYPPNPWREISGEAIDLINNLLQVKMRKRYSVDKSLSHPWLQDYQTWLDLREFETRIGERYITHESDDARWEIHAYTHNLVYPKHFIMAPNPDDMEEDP

## Nc1ncc(-c2ccc(NS(=O)(=O)C3CC3)cc2OC2CCCCC2)cc1-c1ccc2c(c1)CCNC2=O [Compound I-65, N-(4-(6-amino-5-(1-oxo-1,2,3,4-tetrahydroisoquinolin-6-yl)pyridin-3-yl)-3-(cyclohexyloxy)phenyl) cyclopropanesulfonamide]
PKD3; [1]
  inhibition at 10 µM: 0%
PKD3; read-out: inhibition (10 μM)
  inhibition at 10 µM: -24.2%
CDK7; [1]
  inhibition at 10 µM: 0%
CDK7; read-out: inhibition (10 μM)
  inhibition at 10 µM: 29.9%
FRAP; [1]
  inhibition at 10 µM: 35 to 40%
FRAP; read-out: inhibition (10 μM)
  inhibition at 10 µM: 47.9%
p38a
  inhibition at 10 µM: 0%
PAN3; [1]
  inhibition at 10 µM: 0%
PAN3; read-out: inhibition (10 μM)
  inhibition at 10 µM: 5.8%
AurA, AurB, AurC; 10 μM, range class
  % inhibition: 35-40%
AurA, AurB, AurC
  inhibition (10 μM): 42.9%
PKR; [1]
  inhibition at 10 µM: 0%
PKR; read-out: inhibition (10 μM)
  inhibition at 10 µM: -7.6%
CaMK2g; [1]
  inhibition at 10 µM: 0%
CaMK2g; read-out: inhibition (10 μM)
  inhibition at 10 µM: -12%
MARK1, MARK2; 10 μM, range class
  % inhibition: 0.0%
MARK1, MARK2
  inhibition (10 μM): −29.4%
BRAF; [1]
  inhibition at 10 µM: 0%
BRAF; read-out: inhibition (10 μM)
  inhibition at 10 µM: -41.5%
MAP3K2; [1]
  inhibition at 10 µM: 0%
MAP3K2; read-out: inhibition (10 μM)
  inhibition at 10 µM: -3.9%
MAP2K4; [1]
  inhibition at 10 µM: 0%
MAP2K4; read-out: inhibition (10 μM)
  inhibition at 10 µM: -15.3%
eEF2K; [1]
  inhibition at 10 µM: 0%
eEF2K; read-out: inhibition (10 μM)
  inhibition at 10 µM: -21.7%
CaMKK2; [1]
  inhibition at 10 µM: 75 to 90%
CaMKK2; read-out: inhibition (10 μM)
  inhibition at 10 µM: 85.6%
RSK2 domain2; [1]
  inhibition at 10 µM: 0%
RSK2 domain2; read-out: inhibition (10 μM)
  inhibition at 10 µM: 7.2%
ACK; [1]
  inhibition at 10 µM: 0%
ACK; read-out: inhibition (10 μM)
  inhibition at 10 µM: 30.7%
PIK3CB; [1]
  inhibition at 10 µM: 0%
PIK3CB; read-out: inhibition (10 μM)
  inhibition at 10 µM: 14.6%
MST1, MST2; 10 μM, range class
  % inhibition: >90%
MST1, MST2
  inhibition (10 μM): 98.7%
STLK3; [1]
  inhibition at 10 µM: 0%
STLK3; read-out: inhibition (10 μM)
  inhibition at 10 µM: 31.4%
GCK; [1]
  inhibition at 10 µM: > 90%
GCK; read-out: inhibition (10 μM)
  inhibition at 10 µM: 92.5%
PKCi; [1]
  inhibition at 10 µM: 0%
PKCi; read-out: inhibition (10 μM)
  inhibition at 10 µM: -41.2%
PEK; [1]
  inhibition at 10 µM: 0%
PEK; read-out: inhibition (10 μM)
  inhibition at 10 µM: -12.9%
MST4; 10 μM, range class
  % inhibition: 35-40%
MST4
  inhibition (10 μM): 47.7%
AKT1; [1]
  inhibition at 10 µM: 0%
AKT1; read-out: inhibition (10 μM)
  inhibition at 10 µM: 1.6%
AurB; [1]
  inhibition at 10 µM: 0%
AurB; read-out: inhibition (10 μM)
  inhibition at 10 µM: 21%
SMG1; [1]
  inhibition at 10 µM: 50 to 75%
SMG1; read-out: inhibition (10 μM)
  inhibition at 10 µM: 68.8%
MLK3; [1]
  inhibition at 10 µM: 75 to 90%
MLK3; read-out: inhibition (10 μM)
  inhibition at 10 µM: 82.7%
GSK3B; [1]
  inhibition at 10 µM: > 90%
GSK3B; read-out: inhibition (10 μM)
  inhibition at 10 µM: 90%
Erk2; [1]
  inhibition at 10 µM: 0%
Erk2; read-out: inhibition (10 μM)
  inhibition at 10 µM: -29.6%
PRP4; [1]
  inhibition at 10 µM: 0%
PRP4; read-out: inhibition (10 μM)
  inhibition at 10 µM: -19.3%
PIK3CG; [1]
  inhibition at 10 µM: 0%
PIK3CG; read-out: inhibition (10 μM)
  inhibition at 10 µM: -64%
MARK2, MARK3; 10 μM, range class
  % inhibition: 0.0%
MARK2, MARK3
  inhibition (10 μM): −17.2%
RSKL1; [1]
  inhibition at 10 µM: 0%
RSKL1; read-out: inhibition (10 μM)
  inhibition at 10 µM: -10.6%
PKCz; [1]
  inhibition at 10 µM: 0%
PKCz; read-out: inhibition (10 μM)
  inhibition at 10 µM: -12.4%
